Results as given in patent US9724358B2, “Minocycline compounds and methods of use thereof” (Paratek Pharmaceuticals, Inc., priority 2008, dated 2017).

Key:
MSSA = experiment: Phase 2 CSSSI study, clinical outcome by organism: MSSA; type: in vivo, Staphylococcus aureus; details: for Clinical outcome Failure (number) / Clinical outcome Success (number): ME population, MSSA; for clinical success rate against MSSA: as determined in the trials of the Exemplification
Experimental: (§1) A randomized (1:1), controlled, evaluator-blinded Phase 2 study comparing 9-[(2,2-dimethyl-propyl amino)-methyl-minocycline (compound 1) and linezolid (Zyvox™) for the treatment of complicated skin and skin structure infections (CSSSI) was conducted. Patients with CSSSI who required initial intravenous (IV) therapy and met inclusion and exclusion criteria were enrolled at 11 centers in the US and were randomized to receive either compound 1 (100 mg Q24 h IV with 200 mg Q24 h oral step-down) or linezolid (600 mg Q12 h IV with 600 mg Q12 h oral step-down).
(§2) An infecting pathogen was defined as an isolate derived from the last positive culture taken from the site of infection under study prior to and including day 1.

MRSA = experiment: Phase 2 CSSSI study, clinical outcome by organism: MRSA; type: in vivo, Staphylococcus aureus; details: for Clinical outcome Failure (number) / Clinical outcome Success (number): ME population, MRSA; for clinical success rate against MRSA: as determined in the trials of the Exemplification
Experimental: as §1, §2

B-Strep = experiment: Phase 2 CSSSI study, clinical outcome by organism: B-Strep; type: in vivo, B-streptococci; details: for Clinical outcome Failure (number) / Clinical outcome Success (number): ME population, B-Strep; for clinical success rate against B. streptococci: as determined in the trials of the Exemplification
Experimental: as §1, §2

GNR = experiment: Phase 2 CSSSI study, clinical outcome by organism: GNR; type: in vivo, gram-negative rods; details: ME population
Experimental: as §1, §2

Viridans Strep = experiment: Phase 2 CSSSI study, clinical outcome by organism: Viridans Strep; type: in vivo, Viridans Streptococci; details: ME population
Experimental: as §1, §2

G+ anaerobes = experiment: Phase 2 CSSSI study, clinical outcome by organism: G+ anaerobes; type: in vivo, gram-positive anaerobes; details: ME population
Experimental: as §1, §2

Mixed GPC = experiment: Phase 2 CSSSI study, clinical outcome by organism: Mixed GPC; type: in vivo; details: ME population
Experimental: as §1, §2

Mixed GPC/GNR = experiment: Phase 2 CSSSI study, clinical outcome by organism: Mixed GPC/GNR; type: in vivo; details: ME population
Experimental: as §1, §2

infecting pathogen = experiment: Phase 2 CSSSI study, microbiology outcome; type: in vivo, human; details: ME population; for Presumed Persistence (% of subjects) / Presumed Persistence (number of subjects): clinical failure; for Presumed Persistence (% of subjects) / Presumed Persistence (number of subjects) / Presumed Eradication (% of subjects) / Presumed Eradication (number of subjects): no pathogen at TOC; for Persistence (% of subjects) / Persistence (number of subjects) / Presumed Eradication (% of subjects) / Presumed Eradication (number of subjects): clinical success; for Persistence (% of subjects) / Persistence (number of subjects): enrollment pathogen isolated at TOC
Experimental: as §2
A persisting pathogen at the site of infection under study was defined as an isolate that was the same genus and species as an infecting pathogen; and was cultured at the Test-of-Cure evaluation from the site of infection under study.
A superinfecting pathogen at the site of infection under study is defined as a pathogen meeting all of the following criteria: represented a genus and species not isolated during the Enrollment evaluation, was cultured at any time from the day 3 of treatment to the test of cure evaluation, inclusive; was cultured from a patient who had at least one infecting pathogen; and was cultured from a patient who represents a “clinical failure.”
Microbiological response to treatment was determined for each infecting pathogen using the following classification: documented eradication, presumed eradication, documented persistence, presumed persistence, or unknown.
Microbiological response to treatment was determined for each subject using the following classification:
Microbiologic Success—all infecting pathogens isolated at baseline were eradicated or presumed eradicated at the test-of-cure evaluation and no superinfecting pathogen was isolated from the site of infection under study.
Microbiological Failure—persistence or presumed persistence of one or more infecting pathogens or isolation of a superinfecting pathogen from the site of infection under study.

[1] = Phase 2 CSSSI study, safety: ALT level; type: in vivo, human
Experimental: as §1
At each of the four structured evaluations, the blinded evaluator assessed the subject, with particular attention to scoring the findings at the primary site of infection and obtaining cultures. Clinical and microbiologic outcomes were determined using these assessments. Primary evaluation criteria was safety and tolerability compared with linezolid. Secondary evaluation criteria was efficacy of compound 1 compared to linezolid, as well as pharmacokinetics of compound 1.

[2] = Phase 2 CSSSI study, subject disposition (discontinuations); type: in vivo, human; details: ITT population
Experimental: as §1
All subjects had four structured evaluations: at Enrollment (Baseline); at End of IV Treatment; at End of Treatment; and at 10 to 17 days after last dose of treatment (test of cure (TOC) evaluation). In addition, the blinded investigator saw each subject daily while they were on IV therapy and at least every 3 days while receiving oral treatment to determine whether to continue current treatment, switch from IV to oral therapy, or discontinue treatment.

[3] = EOT, ALT abnormal at enrollment
[4] = EOT, ALT within normal limits at enrollment
[5] = TOC, ALT abnormal at enrollment
[6] = TOC, ALT within normal limits at enrollment
[7] = max on treatment, ALT abnormal at enrollment
[8] = max on treatment, ALT within normal limits at enrollment

Structure (SMILES): CN(C)c1cc(CNCC(C)(C)C)c(O)c2c1C[C@H]1C[C@H]3[C@H](N(C)C)C(O)=C(C(N)=O)C(=O)[C@@]3(O)C(O)=C1C2=O [Compound 1, 9-[(2,2-dimethyl-propylamino)-methyl]-minocycline]
- Clinical outcome Failure (number) (MSSA): 2
- Clinical outcome Success (number) (MSSA): 27
- clinical success rate against MSSA (MSSA): 93%
- Clinical outcome Failure (number) (MRSA): 0
- Clinical outcome Success (number) (MRSA): 42
- Clinical outcome Failure (number) (MRSA; listed as compound 1): none
- clinical success rate against MRSA (MRSA): 100%
- Clinical outcome Failure (number) (B-Strep): 0
- Clinical outcome Success (number) (B-Strep): 6
- clinical success rate against B. streptococci (B-Strep): 100%
- Clinical outcome Failure (number) (GNR): 2
- Clinical outcome Success (number) (GNR): 7
- Clinical outcome Failure (number) (Viridans Strep): 1
- Clinical outcome Success (number) (Viridans Strep): 3
- Clinical outcome Failure (number) (G+ anaerobes): 0
- Clinical outcome Success (number) (G+ anaerobes): 0
- Clinical outcome Failure (number) (Mixed GPC): 2
- Clinical outcome Success (number) (Mixed GPC): 16
- Clinical outcome Failure (number) (Mixed GPC/GNR): 2
- Clinical outcome Success (number) (Mixed GPC/GNR): 12
- Presumed Persistence (% of subjects) (infecting pathogen): 2.7%
- Presumed Persistence (number of subjects) (infecting pathogen): 2
- Persistence (% of subjects) (infecting pathogen): 2.7%
- Persistence (number of subjects) (infecting pathogen): 2
- Presumed Eradication (% of subjects) (infecting pathogen): 94.7%
- Presumed Eradication (number of subjects) (infecting pathogen): 71
- ALT Increase: >2x ULN and 2x baseline (number) [1, 3]: 0
- ALT NS: >ULN and <2x baseline (%) [1, 3]: 84.6%
- ALT NS: >ULN and <2x baseline (number) [1, 3]: 11
- ALT Within normal limits (%) [1, 3]: 15.4%
- ALT Within normal limits (number) [1, 3]: 2
- ALT 1x-2x (%) [1, 4]: 6.5%
- ALT 1x-2x (number) [1, 4]: 6
- ALT 2x-3x (number) [1, 4]: 0
- ALT >3x (number) [1, 4]: 0
- ALT Within normal limits (%) [1, 4]: 93.5%
- ALT Within normal limits (number) [1, 4]: 86
- ALT Increase: >2x ULN and 2x baseline (%) [1, 5]: (7.7%)
- ALT Increase: >2x ULN and 2x baseline (number) [1, 5]: 1
- ALT NS: >ULN and <2x baseline (%) [1, 5]: (69.2%)
- ALT NS: >ULN and <2x baseline (number) [1, 5]: 9
- ALT Within normal limits (%) [1, 5]: (23.1%)
- ALT Within normal limits (number) [1, 5]: 3
- ALT 1x-2x (%) [1, 6]: (5.6%)
- ALT 1x-2x (number) [1, 6]: 5
- ALT 2x-3x (number) [1, 6]: 0
- ALT >3x (number) [1, 6]: 0
- ALT Within normal limits (%) [1, 6]: (94.4%)
- ALT Within normal limits (number) [1, 6]: 85
- ALT Increase: >2x ULN and 2x baseline (%) [1, 7]: (14.3%)
- ALT Increase: >2x ULN and 2x baseline (number) [1, 7]: 2
- ALT NS: >ULN and <2x baseline (%) [1, 7]: (78.6%)
- ALT NS: >ULN and <2x baseline (number) [1, 7]: 11
- ALT Within normal limits (%) [1, 7]: (7.1%)
- ALT Within normal limits (number) [1, 7]: 1
- ALT 1x-2x (%) [1, 8]: (12.4%)
- ALT 1x-2x (number) [1, 8]: 12
- ALT 2x-3x (number) [1, 8]: 0
- ALT >3x (%) [1, 8]: (1.0%)
- ALT >3x (number) [1, 8]: 1
- ALT Within normal limits (%) [1, 8]: (86.6%)
- ALT Within normal limits (number) [1, 8]: 84
- Premature Discontinuation (% of subjects) [2]: (4.5%)
- Premature Discontinuation (number of subjects) [2]: 5
- Premature Discontinuation due to Adverse Event (% of subjects) [2]: (0.9%)
- Premature Discontinuation due to Adverse Event (number of subjects) [2]: 1
- Premature Discontinuation due to Treatment Failure (% of subjects) [2]: (0.9%)
- Premature Discontinuation due to Treatment Failure (number of subjects) [2]: 1
- Premature Discontinuation due to Adverse Event (number of subjects) ([2]; listed as compound 1): no discontinuations

Structure (SMILES): CC(=O)NCC1CN(c2ccc(N3CCOCC3)c(F)c2)C(=O)O1 (stereo not drawn) [Linezolid, N-[[3-(3-fluoro-4-morpholinophenyl)-2-oxooxazolidin-5-yl]methyl]acetamide, reference compound]
- Clinical outcome Failure (number) (MSSA): 2
- Clinical outcome Success (number) (MSSA): 21
- clinical success rate against MSSA (MSSA): 91%
- Clinical outcome Failure (number) (MRSA): 2
- Clinical outcome Success (number) (MRSA): 30
- clinical success rate against MRSA (MRSA): 93%
- Clinical outcome Failure (number) (B-Strep): 2
- Clinical outcome Success (number) (B-Strep): 0
- clinical success rate against B. streptococci (B-Strep): 0%
- Clinical outcome Failure (number) (GNR): 0
- Clinical outcome Success (number) (GNR): 7
- Clinical outcome Failure (number) (Viridans Strep): 0
- Clinical outcome Success (number) (Viridans Strep): 6
- Clinical outcome Failure (number) (G+ anaerobes): 0
- Clinical outcome Success (number) (G+ anaerobes): 3
- Clinical outcome Failure (number) (Mixed GPC): 2
- Clinical outcome Success (number) (Mixed GPC): 9
- Clinical outcome Failure (number) (Mixed GPC/GNR): 0
- Clinical outcome Success (number) (Mixed GPC/GNR): 10
- Presumed Persistence (% of subjects) (infecting pathogen): 6.3%
- Presumed Persistence (number of subjects) (infecting pathogen): 4
- Persistence (% of subjects) (infecting pathogen): 1.6%
- Persistence (number of subjects) (infecting pathogen): 1
- Presumed Eradication (% of subjects) (infecting pathogen): 92.1%
- Presumed Eradication (number of subjects) (infecting pathogen): 58
- ALT Increase: >2x ULN and 2x baseline (number) [1, 3]: 0
- ALT NS: >ULN and <2x baseline (%) [1, 3]: (63.6%)
- ALT NS: >ULN and <2x baseline (number) [1, 3]: 7
- ALT Within normal limits (%) [1, 3]: (36.4%)
- ALT Within normal limits (number) [1, 3]: 4
- ALT 1x-2x (%) [1, 4]: (10.0%)
- ALT 1x-2x (number) [1, 4]: 9
- ALT 2x-3x (%) [1, 4]: (1.1%)
- ALT 2x-3x (number) [1, 4]: 1
- ALT >3x (%) [1, 4]: (1.1%)
- ALT >3x (number) [1, 4]: 1
- ALT Within normal limits (%) [1, 4]: (87.8%)
- ALT Within normal limits (number) [1, 4]: 79
- ALT Increase: >2x ULN and 2x baseline (%) [1, 5]: (8.3%)
- ALT Increase: >2x ULN and 2x baseline (number) [1, 5]: 1
- ALT NS: >ULN and <2x baseline (%) [1, 5]: (50.0%)
- ALT NS: >ULN and <2x baseline (number) [1, 5]: 6
- ALT Within normal limits (%) [1, 5]: (41.7%)
- ALT Within normal limits (number) [1, 5]: 5
- ALT 1x-2x (%) [1, 6]: (5.1%)
- ALT 1x-2x (number) [1, 6]: 4
- ALT 2x-3x (number) [1, 6]: 0
- ALT >3x (number) [1, 6]: 0
- ALT Within normal limits (%) [1, 6]: (94.9%)
- ALT Within normal limits (number) [1, 6]: 75
- ALT Increase: >2x ULN and 2x baseline (%) [1, 7]: (16.7%)
- ALT Increase: >2x ULN and 2x baseline (number) [1, 7]: 2
- ALT NS: >ULN and <2x baseline (%) [1, 7]: (66.7%)
- ALT NS: >ULN and <2x baseline (number) [1, 7]: 8
- ALT Within normal limits (%) [1, 7]: (16.7%)
- ALT Within normal limits (number) [1, 7]: 2
- ALT 1x-2x (%) [1, 8]: (14.7%)
- ALT 1x-2x (number) [1, 8]: 14
- ALT 2x-3x (%) [1, 8]: (5.3%)
- ALT 2x-3x (number) [1, 8]: 5
- ALT >3x (%) [1, 8]: (1.1%)
- ALT >3x (number) [1, 8]: 1
- ALT Within normal limits (%) [1, 8]: (78.9%)
- ALT Within normal limits (number) [1, 8]: 75
- Premature Discontinuation (% of subjects) [2]: (7.4%)
- Premature Discontinuation (number of subjects) [2]: 8
- Premature Discontinuation due to Adverse Event (% of subjects) [2]: (1.9%)
- Premature Discontinuation due to Adverse Event (number of subjects) [2]: 2
- Premature Discontinuation due to Treatment Failure (number of subjects) [2]: 0
